Results: paper PMC12068666, “Synthesis of thiazole-integrated pyrrolotriazinones: evaluations of cytotoxicity and effects on PI3K levels in cancer cells” (Turkish Journal of Chemistry, 2025)
“Also recorded” adds a separate entry of the source.

Key:
PI3K enzyme = conditions: cited from earlier work
MCF-7 cells = assay: MTT assay, antiproliferative activity, MCF-7; type: cell-based, human; conditions: for IC50: Homo sapiens, MCF7, MTT, 24 h treatment, mean ± SD; for Selectivity Index (SI) MCF-7: IC50 of healthy cells (NIH/3T3)/IC50 of cancer cells
Method: (§1) MCF-7 (human ER + breast cancer, HTB-22, USA), A549 (human nonsmall cell lung cancer, ATTC CRM-CCL-185, USA), HepG2 (human liver cancer, ATTC HB-8065, USA), and NIH/3T3 (mouse embryonic fibroblast, ATCC, CRL-1658, USA) cells were maintained in DMEM supplemented with 10% fetal bovine serum and 1% penicillin/streptomycin. The cells were maintained under appropriate conditions (37 °C, 5% CO2).
(§2) The antiproliferative activity of the newly synthesized compounds was measured using the MTT assay as described in a previous study. Briefly, cells were seeded at a density of 6 × 10^3 cells/well and incubated for 24 h in a 37 °C humidified incubator with 5% CO2. Afterwards, the cells were treated with increasing concentrations (1, 2.5, 5, 10, 25, 50, 75, and 100 μM) of compounds and incubated for another 24 h. Moreover, some cells were incubated with doxorubicin (1, 5, 10, 25, and 50 μM) for comparison, while other cells treated only with 1% DMSO was used as the solvent control. After incubation, 20 μL of MTT solution (5 mg/mL in PBS) was added to each well, and the plate was incubated for 4 h under the same conditions. Following this period, the medium was discarded and replaced with DMSO. The absorbance of dissolved formazan crystals was measured using a multiplate reader. The IC50 value and the selectivity index of each compound were calculated as previously described.
(§3) The antiproliferative effect of all newly synthesized thiazole-integrated pyrrolotriazinone derivatives were assessed against cancer cell lines (MCF-7, A549, and HepG2) as well as a healthy cell line (NIH/3T3) using the MTT assay. The IC50 values were determined through the nonlinear regression algorithm for log (inhibitor) versus normalized response-variable slope, as implemented in GraphPad [Y = 100/(1 + 10^X−LogIC50), where X represents the logarithm of the inhibitor concentration and Y denotes the response]. Additionally, Selectivity Indices (SI: IC50 of healthy cells/IC50 of cancer cells) were calculated.

A549 cells = assay: MTT assay, antiproliferative activity, A549; type: cell-based, human; conditions: for IC50: Homo sapiens, A549, MTT, 24 h treatment, mean ± SD; for Selectivity Index (SI) A549: IC50 of healthy cells (NIH/3T3)/IC50 of cancer cells
Method: as §1, §2, §3

HepG2 cells = assay: MTT assay, antiproliferative activity, HepG2; type: cell-based, human; conditions: for IC50: Homo sapiens, HepG2, MTT, 24 h treatment, mean ± SD
Method: as §1, §2, §3

NIH/3T3 cells = assay: MTT assay, healthy cell line NIH/3T3; type: cell-based; conditions: Mus musculus, NIH3T3, 24 h treatment, mean ± SD
Method: as §1, §2, §3

PI3K [1] = assay: PI3K protein levels by ELISA in MCF-7 cells; type: cell-based, human; conditions: IC50 concentration, 24 h, compared to 1% DMSO control
Method: (§4) The protein levels of PI3K in MCF-7 and HepG2 cells were assessed using enzyme-linked immunosorbent assay (ELISA) kits. […] After the incubation period, the medium was collected, and PI3K protein levels were measured using ELISA kits according to the manufacturer’s instructions (Cat no: ELK9879, ELK Biotechnology, Denver, USA).

PI3K [2] = assay: PI3K protein levels by ELISA in HepG2 cells; type: cell-based, human; conditions: IC50 concentration, 24 h, compared to 1% DMSO control
Method: as §4

| IC50 (MCF-7 cells) [µM] | IC50 (A549 cells) [µM] | IC50 (HepG2 cells) [µM] | SMILES | IC50 (PI3K enzyme) [µM] | Selectivity Index (SI) MCF-7 (MCF-7 cells) | Selectivity Index (SI) A549 (A549 cells) | Selectivity Index (SI) HepG2 (HepG2 cells; IC50 of healthy cells (NIH/3T3)/IC50 of cancer cells) | IC50 (NIH/3T3 cells) [µM] | PI3K protein levels in MCF-7 cells (PI3K [1]) | PI3K protein levels in HepG2 cells (PI3K [2]) |
| --- | --- | --- | --- | --- | --- | --- | --- | --- | --- | --- |
|  |  |  | Cc1ccccc1-n1c(Cn2cnc3c(N)ncnc32)nn2ccc(C)c2c1=O [Compound 5] | 0.11 |  |  |  |  |  |  |
|  |  |  | Cc1ccn2nc(C(C)n3cnc4c(N)ncnc43)n(-c3ccccc3)c(=O)c12 (centres unmarked) [Compound 6] | 0.075 |  |  |  |  |  |  |
| 8.1 ± 0.17 | 38.7 ± 0.4 | 7.21 | O=c1n(-c2nc(-c3ccc(Cl)c(Cl)c3)cs2)ncc2cccn12 [Compound 25, 3-(4-(3,4-dichlorophenyl)thiazol-2-yl)pyrrolo[1,2-d][1,2,4]triazin-4(3H)-one] |  | 13.60 | 2.84 | 15.20 | > 100 | significantly reduced; also recorded: significant reduction in PI3K protein levels | markedly diminished; also recorded: significant reduction in PI3K protein levels |
| 9.23 ± 1.09 | 37.2 ± 1.15 | 6.18 ± 0.63 | O=c1n(-c2nc(-c3ccc(Cl)cc3Cl)cs2)ncc2cccn12 [Compound 27, 3-(4-(2,4-dichlorophenyl)thiazol-2-yl)pyrrolo[1,2-d][1,2,4]triazin-4(3H)-one] |  | 10.30 | 2.83 |  | > 100 | significantly reduced; also recorded: reduced PI3K levels; also recorded: significant reduction in PI3K protein levels | markedly diminished; also recorded: reduced PI3K levels; also recorded: significant reduction in PI3K protein levels |
|  |  |  | Cc1ccccc1-n1c(Cn2cnc3c(N)ncnc32)nc2cccc(C)c2c1=O [IC87114] | 0.13 |  |  |  |  |  |  |
